Results reported in paper PMC11239673, “Structural basis for the bi-specificity of USP25 and USP28 inhibitors” (EMBO Reports, 2024).
Positions count from the first letter of the chain named. Where “and” joins values, the source holds several entries; their conditions need not be identical. Equal entries are not always repeated.

Legend:
USP25Δtip E373Q = biological target: T1, USP25Δtip E373Q (Homo sapiens, UniProt Q9UHP3, DEL465-537/E373Q/INS464GSGSGS); test: Ub-Rho110 dose–response assay, USP25Δtip E373Q; assay type: biochemical
T1 construct: 6xHis or thioredoxin-6xHis (N, cleaved yes); made in house; host or cells: E. coli BL21star (DE3)
T1 sequence (Q9UHP3 with tags, fused parts or gaps E373Q/DEL465-477/P478G/DEL482-535/A536G/P537S limits assumed): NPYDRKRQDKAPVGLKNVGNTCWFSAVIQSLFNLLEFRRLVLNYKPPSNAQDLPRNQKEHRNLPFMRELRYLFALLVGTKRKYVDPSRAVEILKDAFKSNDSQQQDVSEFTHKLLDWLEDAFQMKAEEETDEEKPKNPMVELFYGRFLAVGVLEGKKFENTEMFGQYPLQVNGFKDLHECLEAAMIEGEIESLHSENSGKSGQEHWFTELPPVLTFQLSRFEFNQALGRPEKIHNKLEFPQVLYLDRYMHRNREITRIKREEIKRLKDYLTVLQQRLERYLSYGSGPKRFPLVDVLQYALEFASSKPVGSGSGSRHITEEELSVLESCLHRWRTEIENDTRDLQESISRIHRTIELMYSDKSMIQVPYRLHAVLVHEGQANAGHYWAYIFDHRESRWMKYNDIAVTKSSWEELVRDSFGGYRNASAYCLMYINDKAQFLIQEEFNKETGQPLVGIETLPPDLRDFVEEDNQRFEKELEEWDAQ

USP25Δtip L271F = biological target: T2, USP25Δtip L271F (Homo sapiens, UniProt Q9UHP3, DEL465-537/INS464GSGSGS/L271F); test: Ub-Rho110 dose–response assay, USP25Δtip L271F; assay type: biochemical
T2 construct: 6xHis or thioredoxin-6xHis (N, cleaved yes); made in house; host or cells: E. coli BL21star (DE3)
T2 sequence (Q9UHP3 with tags, fused parts or gaps L271F/DEL465-477/P478G/DEL482-535/A536G/P537S limits assumed): T1 sequence (Q9UHP3 with tags, fused parts or gaps E373Q/DEL465-477/P478G/DEL482-535/A536G/P537S limits assumed) with L115F, Q217E

USP25fl = biological target: T3, USP25fl (Homo sapiens, UniProt Q9UHP3); test: SEC-MALS analysis of the oligomeric state of USP25fl after inhibitor incubation; conditions: for MW [kDa]: SEC-MALS molar mass of USP25-fl
T3 sequence (Q9UHP3 1-1055): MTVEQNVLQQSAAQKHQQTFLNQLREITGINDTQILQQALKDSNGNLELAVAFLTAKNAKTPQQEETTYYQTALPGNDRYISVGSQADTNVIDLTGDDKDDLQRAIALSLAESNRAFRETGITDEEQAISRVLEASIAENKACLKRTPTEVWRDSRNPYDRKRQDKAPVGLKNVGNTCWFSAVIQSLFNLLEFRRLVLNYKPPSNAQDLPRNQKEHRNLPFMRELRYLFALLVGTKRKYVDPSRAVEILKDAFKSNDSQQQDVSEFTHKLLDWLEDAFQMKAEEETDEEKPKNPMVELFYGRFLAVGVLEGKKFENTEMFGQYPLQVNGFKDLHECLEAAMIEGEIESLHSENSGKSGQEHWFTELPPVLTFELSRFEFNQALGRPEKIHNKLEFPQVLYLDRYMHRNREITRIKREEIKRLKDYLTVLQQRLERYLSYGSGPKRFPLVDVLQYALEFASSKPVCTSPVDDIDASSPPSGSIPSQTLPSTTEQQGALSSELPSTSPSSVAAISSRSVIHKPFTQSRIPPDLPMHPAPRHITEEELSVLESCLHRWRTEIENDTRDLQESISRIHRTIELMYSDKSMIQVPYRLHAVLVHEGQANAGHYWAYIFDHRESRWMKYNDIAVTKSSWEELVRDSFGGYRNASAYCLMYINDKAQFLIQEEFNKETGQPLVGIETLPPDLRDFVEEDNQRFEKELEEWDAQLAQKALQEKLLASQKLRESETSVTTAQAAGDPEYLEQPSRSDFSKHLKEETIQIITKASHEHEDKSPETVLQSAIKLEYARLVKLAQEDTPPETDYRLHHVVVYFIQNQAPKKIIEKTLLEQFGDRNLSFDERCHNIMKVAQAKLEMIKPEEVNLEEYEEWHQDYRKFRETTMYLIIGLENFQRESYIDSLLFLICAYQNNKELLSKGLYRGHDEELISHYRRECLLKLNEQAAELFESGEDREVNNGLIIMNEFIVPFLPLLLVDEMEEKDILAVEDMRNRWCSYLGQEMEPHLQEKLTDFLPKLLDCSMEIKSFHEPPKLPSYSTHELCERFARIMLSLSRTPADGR

[1] = 20 µM USP25, 60 µM inhibitor, mean of experiments
[2] = 20 µM USP25, 60 µM inhibitor, single experiments

Cc1ccc2c(N)c(C(=O)NC3CCc4cc(N5CC6CCC(C5)N6)ccc4C3)sc2n1 (stereo not shown) [FT206]
t-test vs. USP25 WT control - E373Q (USP25Δtip E373Q; p value, inhibitor IC50 on USP25 E373Q compared with USP25 WT): 8.243E-06
inhibition at 100 µM (USP25Δtip E373Q; read-out: relative inhibition [%] - USP25 - E373Q, inhibitor 100.00 µM, single replicates): 48.3%
t-test vs. USP25 WT control - L271F (USP25Δtip L271F; p value, inhibitor IC50 on USP25 L271F compared with USP25 WT): 4.479E-03
inhibition at 11.11 µM (USP25Δtip L271F; read-out: relative inhibition [%] - USP25 - L271F, inhibitor 11.11 µM, single replicates): 90.1%
inhibition at 33.33 µM (USP25Δtip L271F; read-out: relative inhibition [%] - USP25 - L271F, inhibitor 33.33 µM, single replicates): 95.6%
inhibition at 100 µM (USP25Δtip L271F; read-out: relative inhibition [%] - USP25 - L271F, inhibitor 100.00 µM, single replicates): 100%
avg. Mol mass (10.5-14.5 ml), mean (USP25fl; 20 µM USP25, 60 µM inhibitor, mean of 4 experiments): 298.950
dimer (fraction), mean (USP25fl; [1]): 0.777
tetramer (fraction), mean (USP25fl; [1]): 0.223
avg. Mol mass (10.5-14.5 ml) (USP25fl; [2]): 298.000 and 299.300 and 295.500 and 303.000
dimer (fraction) (USP25fl; [2]): 0.781 and 0.775 and 0.791 and 0.760
tetramer (fraction) (USP25fl; [2]): 0.219 and 0.225 and 0.209 and 0.240
% dimer (USP25fl; 20 µM USP25fl, 60 µM inhibitor, 45 min, average of ≥3 experiments ± SD, DMSO control 26.2 ± 1.5): 77.7 ± 1.1%
% tetramer (USP25fl; 20 µM USP25fl, 60 µM inhibitor, 45 min, average of ≥3 experiments ± SD, DMSO control 73.8 ± 1.5): 22.3 ± 1.1%
Ø Mw (USP25fl; 20 µM USP25fl, 60 µM inhibitor, 45 min, average of ≥3 experiments ± SD, DMSO control 424.7 ± 3.8): 299.0 ± 2.7 kDa
MW [kDa] (USP25fl; 10 µM USP25-fl + 5 µM inhibitor, elution volume V [mL] in the cell to the left): 638.16 kDa and 634.82 kDa and 630.15 kDa and 628.44 kDa
MW [kDa] (USP25fl; 10 µM USP25-fl + 10 µM inhibitor, elution volume V [mL] in the cell to the left): 647.07 kDa and 645.88 kDa and 640.88 kDa and 638.88 kDa
MW [kDa] (USP25fl; 10 µM USP25-fl + 20 µM inhibitor, elution volume V [mL] in the cell to the left): 747.51 kDa and 739.67 kDa and 732.41 kDa and 732.02 kDa
dRI (USP25fl; SEC-MALS trace, 10 µM USP25-fl + 20 µM inhibitor, elution volume V [mL] in the cell to the left): 3.84E-07 and 3.46E-07 and 3.10E-07 and 2.78E-07
